± gives the uncertainty stated by the source.
Assay: xn = mol fraction of the nth substance listed
Settings: for electrical conductivity: x1 = 1

CCCC[n+]1ccn(C)c1.N#C[N-]C#N + CC(=O)[O-].[K+] + O
viscosity [mPa·s], 101 kPa
Settings | 298.15 K | 308.15 K | 318.15 K | 323.15 K
x2 = 0.1831, x3 = 0.8019 | 8.2 ± 1.8 | 6 ± 1.5 | – | –
x2 = 0.1943, x3 = 0.7933 | 10 ± 2.1 | 7.2 ± 1.6 | 5.4 ± 1.1 | 4.815 ± 0.069

CCCC[n+]1ccn(C)c1.N#C[S-] + [Br-].[Li+] + CN1CCCC1=O
298.15 K, 101 kPa
Settings | viscosity [mPa·s]
x1 = 0.001086, x2 = 0.02623 | 2.384 ± 0.029
x1 = 0.001092, x2 = 0.05108 | 3.161 ± 0.037
x1 = 0.001138, x2 = 0.07527 | 4.38 ± 0.051
x1 = 0.002508, x2 = 0.07516 | 4.412 ± 0.051
x1 = 0.002857, x2 = 0.02618 | 2.408 ± 0.029
x1 = 0.003083, x2 = 0.05098 | 3.197 ± 0.038
x1 = 0.004195, x2 = 0.07504 | 4.452 ± 0.051
x1 = 0.004231, x2 = 0.02614 | 2.429 ± 0.029
x1 = 0.004315, x2 = 0.05092 | 3.225 ± 0.038
x1 = 0.005622, x2 = 0.05085 | 3.261 ± 0.038
x1 = 0.005708, x2 = 0.02611 | 2.45 ± 0.03
x1 = 0.006129, x2 = 0.07489 | 4.48 ± 0.052
x1 = 0.007405, x2 = 0.02606 | 2.464 ± 0.03
x1 = 0.007466, x2 = 0.07479 | 4.509 ± 0.052
x1 = 0.007731, x2 = 0.05075 | 3.29 ± 0.039
x1 = 0.008848, x2 = 0.07469 | 4.531 ± 0.052
x1 = 0.008873, x2 = 0.02602 | 2.492 ± 0.03
x1 = 0.009097, x2 = 0.05068 | 3.316 ± 0.039
x1 = 0.01032, x2 = 0.07458 | 4.563 ± 0.053
x1 = 0.01035, x2 = 0.02598 | 2.521 ± 0.03
x1 = 0.01065, x2 = 0.0506 | 3.345 ± 0.039
x1 = 0.01201, x2 = 0.02594 | 2.555 ± 0.031
x1 = 0.01214, x2 = 0.05052 | 3.376 ± 0.04
x1 = 0.01216, x2 = 0.07444 | 4.604 ± 0.053

CCCCn1cc[n+](CCCC)c1.O=S(=O)([N-]S(=O)(=O)C(F)(F)F)C(F)(F)F + O
100 kPa, x2 = 0.1843
Settings | viscosity [mPa·s]
308.15 K | 32.12 ± 0.28
358.15 K | 7.83 ± 0.07
363.15 K | 7.07 ± 0.06

CC[n+]1ccn(C)c1C.O=S(=O)([N-]S(=O)(=O)C(F)(F)F)C(F)(F)F + COC(=O)OC
viscosity [mPa·s], 101.3 kPa
Settings | 288.15 K | 293.15 K | 298.15 K | 303.15 K | 308.15 K | 313.15 K
x1 = 0.002023 | 0.685 ± 0.015 | 0.64 ± 0.014 | 0.601 ± 0.013 | 0.564 ± 0.012 | 0.532 ± 0.012 | 0.502 ± 0.011
x1 = 0.003635 | 0.702 ± 0.015 | 0.655 ± 0.014 | 0.613 ± 0.013 | 0.576 ± 0.013 | 0.542 ± 0.012 | 0.512 ± 0.011
x1 = 0.004511 | 0.715 ± 0.016 | 0.668 ± 0.015 | 0.625 ± 0.014 | 0.589 ± 0.013 | 0.556 ± 0.012 | 0.525 ± 0.011
x1 = 0.006328 | 0.731 ± 0.016 | 0.682 ± 0.015 | 0.637 ± 0.014 | 0.599 ± 0.013 | 0.563 ± 0.012 | 0.531 ± 0.012
x1 = 0.007386 | 0.745 ± 0.016 | 0.694 ± 0.015 | 0.65 ± 0.014 | 0.609 ± 0.013 | 0.573 ± 0.013 | 0.541 ± 0.012
x1 = 0.008644 | 0.76 ± 0.017 | 0.706 ± 0.015 | 0.66 ± 0.014 | 0.618 ± 0.014 | 0.58 ± 0.013 | 0.548 ± 0.012
x1 = 0.01069 | 0.79 ± 0.017 | 0.73 ± 0.016 | 0.681 ± 0.015 | 0.638 ± 0.014 | 0.603 ± 0.013 | 0.569 ± 0.012
x1 = 0.01174 | 0.798 ± 0.017 | 0.741 ± 0.016 | 0.691 ± 0.015 | 0.646 ± 0.014 | 0.607 ± 0.013 | 0.571 ± 0.012
x1 = 0.01299 | 0.815 ± 0.018 | 0.757 ± 0.017 | 0.705 ± 0.015 | 0.66 ± 0.014 | 0.619 ± 0.014 | 0.582 ± 0.013
x1 = 0.01405 | 0.825 ± 0.018 | 0.766 ± 0.017 | 0.714 ± 0.016 | 0.666 ± 0.015 | 0.625 ± 0.014 | 0.588 ± 0.013
x1 = 0.01538 | 0.844 ± 0.018 | 0.782 ± 0.017 | 0.728 ± 0.016 | 0.68 ± 0.015 | 0.637 ± 0.014 | 0.599 ± 0.013
x1 = 0.01591 | 0.848 ± 0.019 | 0.786 ± 0.017 | 0.731 ± 0.016 | 0.683 ± 0.015 | 0.639 ± 0.014 | 0.601 ± 0.013
x1 = 0.01645 | 0.854 ± 0.019 | 0.791 ± 0.017 | 0.736 ± 0.016 | 0.687 ± 0.015 | 0.643 ± 0.014 | 0.605 ± 0.013
x1 = 0.01685 | 0.86 ± 0.019 | 0.796 ± 0.017 | 0.74 ± 0.016 | 0.691 ± 0.015 | 0.647 ± 0.014 | 0.608 ± 0.013
x1 = 0.01703 | 0.864 ± 0.019 | 0.8 ± 0.018 | 0.744 ± 0.016 | 0.694 ± 0.015 | 0.651 ± 0.014 | 0.611 ± 0.013
x1 = 0.02124 | 0.91 ± 0.02 | 0.841 ± 0.018 | 0.781 ± 0.017 | 0.727 ± 0.016 | 0.681 ± 0.015 | 0.639 ± 0.014
x1 = 0.02489 | 0.946 ± 0.021 | 0.873 ± 0.019 | 0.81 ± 0.018 | 0.755 ± 0.016 | 0.706 ± 0.015 | 0.662 ± 0.014
x1 = 0.02663 | 0.965 ± 0.021 | 0.891 ± 0.019 | 0.826 ± 0.018 | 0.771 ± 0.017 | 0.72 ± 0.016 | 0.676 ± 0.015
x1 = 0.0275 | 0.978 ± 0.021 | 0.903 ± 0.02 | 0.837 ± 0.018 | 0.78 ± 0.017 | 0.729 ± 0.016 | 0.683 ± 0.015
x1 = 0.03106 | 1.005 ± 0.022 | 0.928 ± 0.02 | 0.86 ± 0.019 | 0.801 ± 0.017 | 0.75 ± 0.016 | 0.702 ± 0.015
x1 = 0.03264 | 1.017 ± 0.022 | 0.939 ± 0.021 | 0.871 ± 0.019 | 0.811 ± 0.018 | 0.759 ± 0.017 | 0.711 ± 0.016
x1 = 0.03671 | 1.052 ± 0.023 | 0.972 ± 0.021 | 0.902 ± 0.02 | 0.839 ± 0.018 | 0.784 ± 0.017 | 0.735 ± 0.016
x1 = 0.04003 | 1.084 ± 0.024 | 1.001 ± 0.022 | 0.928 ± 0.02 | 0.864 ± 0.019 | 0.807 ± 0.018 | 0.756 ± 0.017
x1 = 0.04547 | 1.132 ± 0.025 | 1.046 ± 0.023 | 0.97 ± 0.021 | 0.903 ± 0.02 | 0.843 ± 0.018 | 0.79 ± 0.017
x1 = 0.04804 | 1.154 ± 0.025 | 1.065 ± 0.023 | 0.989 ± 0.022 | 0.92 ± 0.02 | 0.859 ± 0.019 | 0.805 ± 0.018
x1 = 0.05983 | 1.271 ± 0.028 | 1.171 ± 0.026 | 1.086 ± 0.024 | 1.01 ± 0.022 | 0.942 ± 0.021 | 0.881 ± 0.019

CCCC[N+](C)(CCCC)CCCC.[Cl-] + OC[C@H]1O[C@@H](O[C@H]2[C@H](O)[C@@H](O)[C@@H](O)O[C@@H]2CO)[C@H](O)[C@@H](O)[C@H]1O + O
viscosity [mPa·s], 100 kPa
Settings | 293.15 K | 298.15 K | 303.15 K | 308.15 K | 313.15 K
x2 = 0, x1 = 0.0003603 | 1.01 ± 0.02 | 0.904 ± 0.019 | 0.809 ± 0.019 | 0.726 ± 0.019 | 0.661 ± 0.019
x2 = 0, x1 = 0.0007023 | 1.024 ± 0.02 | 0.914 ± 0.019 | 0.815 ± 0.019 | 0.735 ± 0.019 | 0.671 ± 0.019
x2 = 0, x1 = 0.001062 | 1.035 ± 0.02 | 0.93 ± 0.019 | 0.829 ± 0.019 | 0.744 ± 0.019 | 0.686 ± 0.019
x2 = 0, x1 = 0.001422 | 1.045 ± 0.02 | 0.941 ± 0.02 | 0.839 ± 0.019 | 0.756 ± 0.019 | 0.694 ± 0.019

C=CC[n+]1ccn(C)c1.[Cl-] + O
101 kPa
Settings | viscosity [mPa·s]
298.15 K, x2 = 0.193 | 697 ± 28
298.15 K, x2 = 0.267 | 427 ± 15
303.15 K, x2 = 0.335 | 184 ± 12
313.15 K, x2 = 0.045 | 473 ± 42
313.15 K, x2 = 0.126 | 312 ± 10
323.15 K, x2 = 0.335 | 61 ± 3
333.15 K, x2 = 0.091 | 108 ± 5
353.15 K, x2 = 0.126 | 36.9 ± 0.8
353.15 K, x2 = 0.267 | 24.3 ± 0.5
363.15 K, x2 = 0.091 | 28.6 ± 0.9
363.15 K, x2 = 0.126 | 25.6 ± 0.6
373.15 K, x2 = 0.126 | 18.58 ± 0.41
373.15 K, x2 = 0.193 | 15.98 ± 0.35
373.15 K, x2 = 0.267 | 13.37 ± 0.29

CCCC[n+]1ccn(C)c1.N#C[N-]C#N + F[P-](F)(F)(F)(F)F.[Li+]
101 kPa
Settings | electrical conductivity [S/m]
288.15 K | 0.596 ± 0.06
298.15 K | 0.925 ± 0.093
333.15 K | 2.77 ± 0.28

CCCC[n+]1ccn(C)c1.N#C[N-]C#N + O + NCCO
100 kPa, x1 = 0.2918, x2 = 0.2557
Settings | viscosity [mPa·s]
303 K | 11.73 ± 0.25
308 K | 9.99 ± 0.22
313 K | 8.59 ± 0.19
318 K | 7.46 ± 0.16
323 K | 6.53 ± 0.14

Reference: the CheMixHub ionic liquid set
